{"source": "patent US7544693B2", "about": "(priority 2003, dated 2009)", "molecular_target": "α7 nAChR subtype (Rattus norvegicus, UniProt Q05941)", "sequence (Q05941 23-502 limits assumed)": "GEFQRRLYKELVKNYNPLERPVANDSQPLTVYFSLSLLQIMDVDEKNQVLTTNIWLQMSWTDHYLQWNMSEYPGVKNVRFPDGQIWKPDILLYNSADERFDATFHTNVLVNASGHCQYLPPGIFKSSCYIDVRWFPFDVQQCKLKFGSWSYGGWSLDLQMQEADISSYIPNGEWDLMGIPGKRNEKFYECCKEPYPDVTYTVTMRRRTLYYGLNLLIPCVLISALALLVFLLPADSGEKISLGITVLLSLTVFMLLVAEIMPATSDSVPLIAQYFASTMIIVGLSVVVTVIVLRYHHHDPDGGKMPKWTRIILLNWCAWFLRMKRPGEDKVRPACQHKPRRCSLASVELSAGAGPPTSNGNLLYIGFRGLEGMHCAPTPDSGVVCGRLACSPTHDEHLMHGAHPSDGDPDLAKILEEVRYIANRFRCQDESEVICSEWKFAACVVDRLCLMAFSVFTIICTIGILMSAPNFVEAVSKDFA", "format": "binding", "details": "read-out: KD of radioligand (saturation curves, one site model)", "note": "pKd: −log10 of the molar value.", "data": [{"substance": "[^125I]-α-Bungarotoxin [[^125I]-α-BTX]", "values": [{"measurement": "pKd", "result": 8.78}]}]}
